Measurements: patent publication US4486433A, “Fused-ring amino-pyrazines as bradycardiacs” (Dr. Karl Thomae Gesellschaft mit beschrankter Haftung, priority 1980, dated 1984)

Tests used:
[1] = system: circulation of intact, anesthetized rats; experiment: Effect upon blood pressure and heart rate in intact, anesthetized rats after intravenous injection; type: in vivo; conditions: 3 mg/kg i.v.
Protocol: 1. Effect upon blood pressure and heart rate
The changes in the circulation of intact, anesthetized rats after intravenous injection of the test compound were recorded.
Male laboratory rats having a body weight of 120-360 gm were anesthetized with pentobarbital (70 mgm/kg). The animals breathed spontaneously through a tracheal cannula. The blood pressure was continuously measured in an A. carotis with the aid of an electro-mechanical pressure transducer; the pulse wave triggered a tachograph which continuously recorded the heart rate. Both parameters were plotted on a polygraph. The test compound was injected through a catheter into a V. jugularis.
At a dose of 3 mgm/kg i.v. the test compounds produced an initial increase in the blood pressure of short duration and then a long-lasting decrease in the blood pressure. The decrease in the heart rate was distinct and of long duration.

[2] = system: presynaptic α-adrenoceptors; experiment: Inhibition of electrically induced tachycardia in the spinal rat; type: in vivo, rats; conditions: i.v.
Text: There is an auto-regulation system of the noradrenaline release at the adrenergic nerve ends. The stimulation of presynaptic α-adrenoreceptors has an inhibiting effect upon the noradrenaline release and thus a limiting effect upon the adrenergic neurotransmission. Accordingly, upon stimulation of these "feedback receptors", the effect of a given adrenergic stimulation on the […] is reduced.
Male laboratory rats having a body weight of 350-400 gm were anesthetized with pentobarbital (50 mgm/kg i.p.), vagotomized, treated with atropine (1 mgm/kg s.c.), and a tracheal cannula was inserted. After enucleation of an eye, the orbita was punctured, the brain was destroyed, and a metal rod was pushed through the vertebral canal. Artificial respiration was applied to the animals, and they were pre-treated with gallamine (4 mgm/kg i.v.). […] Upon insertion of the rod into the vertebral canal, this uninsulated section is positioned in the area of the last cervical vertebra and the first thoracic vertebra. With the aid of a stimulator a supramaximal stimulus (rectangular impulses 50 V, 2 ms; 0.2 Hz; duration of stimulus 25 sec.) was applied against a counter-electrode inserted into the neck skin.
The blood pressure was measured in an A. carotis by means of an electro-mechanical pressure transducer. […] Both of these signals were recorded on a polygraph.

[3] = system: postsynaptic α-adrenoreceptos; experiment: Hypertensive activity in the spinal rat; type: in vivo, rats; conditions: i.v.
Protocol: 3. Effect on postsynaptic α-adrenoreceptos: Hypertensive activity in the spinal rat
The increase in blood pressure which occurs upon stimulation of postsynaptic α-adrenoreceptos was measured on the spinal rat model.
Male laboratory rats having a body weight of 200-250 gm were anesthetized (1.2 gm/kg urethane i.p., 1 mgm/kg atropine s/c/). Thereafter, the central spinal cord canal was opened, the spinal cord was severed at C1, and the medulla oblongata and the brain were destroyed with a metal sound. Artificial respiration was applied to the animals, and a polyethylene catheter was tied into a jugular vein. The blood pressure was measured in an A. carotis and continuously recorded by means of a Statham element on a Grass polygraph. The test compound was administered i.v. by way of the catheter.
From the raw data thus obtained, the dose of the test compound which increases the arterial blood pressure by 30 mm Hg (D30) was determined.

Acute toxicity in mice = conditions: mouse, in vivo, observation time 14 days
Protocol: The acute toxicity was determined in mice after oral or intravenous administration. Observation time: 14 days.

Compound	Blood pressure, depressor phase (maximum value) [1] [mm Hg]	Blood pressure, pressor phase (maximum value) [1]	Heart rate reduction (maximum value) [1] [beats/minute]	D50 (dose which inhibits the electrically induced tachycardia by 50%) [2] [μgm/kg]	D30 (dose which increases the arterial blood pressure by 30 mm Hg) [3]	LD50 at 336 h (Acute toxicity in mice; iv) [mg/kg]	LD50 at 336 h (Acute toxicity in mice; po) [mg/kg]
CCN1CCc2nc(N)c(Br)nc2CC1.Cl [Compound D, 7-Ethyl-2-amino-3-bromo-6,7,8,9-tetrahydro-5H-pyrazino[2,3-d]azepine hydrochloride]	-5	+50 mm Hg	-55	–	–	–	–
CCN1CCc2nc(C)c(N)nc2CC1.Cl.Cl [F, 7-Ethyl-2-amino-6,7,8,9-tetrahydro-3-methyl-5H-pyrazino-[2,3-d]azepine dihydrochloride]	-10	+38 mm Hg	-78	–	–	–	–
CCN1CCc2nc(N)cnc2C1.Cl.Cl [G, 6-Ethyl-2-amino-5,6,7,8-tetrahydro-pyrido[3,4-b]pyrazine dihydrochloride]	-41	+6 mm Hg	-145	670	1.4 mgm/kg	–	–
Cl.Nc1cnc2c(n1)CCN(C1CC1)CC2 [H, 2-Amino-7-cyclopropyl-6,7,8,9-tetrahydro-5H-pyrazino[2,3-d]azepine hydrochloride]	-28	+51 mm Hg	-110	–	–	–	–
CCN1CCc2ncc(N)nc2CC1.Cl.Cl [A, 7-Ethyl-2-amino-6,7,8,9-tetrahydro-5H-pyrazino[2,3-d]azepine dihydrochloride]	-20	+61 mm Hg	-116	28	480 μgm/kg	215	1250
C=CCN1CCc2ncc(N)nc2CC1.Cl.Cl [B, 7-Allyl-2-amino-6,7,8,9-tetrahydro-5H-pyrazino[2,3-d]azepine dihydrochloride]	-20	+40 mm Hg	-122	–	2.6 mgm/kg	–	–
CCN1CCc2nc(N)c(Cl)nc2CC1.Cl [E, 7-Ethyl-2-amino-3-chloro-6,7,8,9-tetrahydro-5H-pyrazino[2,3-d]azepine hydrochloride]	-11	+32 mm Hg	-70	–	–	–	–
CN1CCc2ncc(N)nc2CC1.Cl.Cl [C, 2-Amino-6,7,8,9-tetrahydro-7-methyl-5H-pyrazino[2,3-d]azepine dihydrochloride]	-36	+26 mm Hg	-105	–	–	–	–
